{
  "source": "patent US9408891B2",
  "about": "“Methods of using gelsolin to treat or prevent bacterial sepsis” (priority 2003, dated 2016)",
  "key": {"[1]": {"test_system": "NF-κB translocation in rat primary astrocytes", "assay": "NF-κB translocation to the nucleus in astrocytes", "assay_type": "cell-based", "conditions": "astrocytes, 2 hour; LPS 2 μM or TNF-α 10 ng/ml", "description": "Rat primary astrocytes were obtained from prenatal rats and maintained for 14 days in culture before use. Embryos (E17-E19) were removed by caesarian section from a Sprague-Dawley rat and the hippocampi were surgically removed. The tissue was digested in trypsin/DNAse at 37° C., centrifuged (1000×5 min) and filtered to derive suspensions from each pup. Cells were grown in an incubator at 37° C. and 5% CO2 in DMEM (Dulbecco's Modified Eagle's Medium; BioWhittaker/Cambrex BioScience, East Rutherford, N.J.), supplemented with Ham's F12 (Sigma-Aldrich, St. Louis, Mo.) and 5% fetal bovine serum (FBS) (Hyclone, Logan, Utah) for 7 days, followed by an additional 7 days in Neurobasal medium (Gibco, Grand Island, N.Y.) also supplemented with 5% FBS, 2 mM l-glutamine, 50 μg/ml streptomycin and 50 U/ml penicillin. In each experiment, the medium was changed to serum-free at 6-12 hours prior to addition of LPS, TNF-α, or gelsolin.\nHAECs and astrocytes cultures were incubated for 10 minutes in medium containing 10 μg/ml LPS alone, or LPS that had been pre-incubated with 0.16 mg/ml of human gelsolin. Cultures were fixed with ice-cold methanol and immunostained for F-actin with fluorescein isothiocyanate (FITC)-labeled phalloidin (Molecular Probes, Eugene, Oreg.). In astrocyte cultures, NF-κB translocation was manipulated by a 2 hour incubation in serum-free medium containing one of the following: 10 ng/ml TNF-α, 10 μg/ml LPS alone, or LPS that had been preincubated with 0.16 mg/ml human gelsolin. Location of transcription factor nuclear factor-kappaB (NF-κB) was observed using a monoclonal antibody to NF-κB (Molecular Probes), and cell nuclei were detected by counter-staining with 4′, 6-diamidino-2-phenylindole dihydrochloride (DAPI) (Sigma)."}, "[2]": {"test_system": "human platelets", "assay": "Collagen-induced aggregation of gel-filtered platelets", "assay_type": "cell-based", "conditions": "collagen 10 μg/ml", "description": "To isolate human platelets, blood from healthy volunteers was collected in acid-citrate dextrose. Platelet-rich plasma obtained after centrifugation (15 minutes, 110×g) at room temperature, was supplemented with apyrase (0.5 U/ml) (Sigma-Aldrich) to degrade excess nucleotides. Platelets were sedimented by centrifugation (10 minutes, 1000×g), suspended in buffer A (139 mM NaCl, 2.8 mM KCl, 0.8 mM MgCl2, 0.8 mM KH2PO4, 8.9 mM NaHCO3, 10 mM HEPES, 5.6 mM glucose, 0.3% albumin, pH 7.35) and filtered on a 50 ml column of Sepharose 2B to obtain gel-filtered platelets (GFP).\nPlatelet aggregation was initiated by adding collagen (10 μg/ml) (Chrono-Log Corp., Havertown, Pa.). Platelet aggregation was monitored using a Chronolog Lumi-Aggregometer (Chrono-Log Corp.). Changes in light transmission were recorded for 10 minutes, using a PowerLab/200 instrument and MacLab Chart program Version 3.2. When required before activation, the platelet suspension was reacted with LPS, or LPS-preincubated with the SEQ ID No:1 peptide (QRLFQVKGRR)."}, "[3]": {"molecular_target": "T1, recombinant human gelsolin (rhGLS) (Homo sapiens, UniProt P06396)", "T1 construct": "purchased Biogen IDEC, Inc., Cambridge, Mass; host or cells: E. coli", "T1 sequence (P06396 28-782)": "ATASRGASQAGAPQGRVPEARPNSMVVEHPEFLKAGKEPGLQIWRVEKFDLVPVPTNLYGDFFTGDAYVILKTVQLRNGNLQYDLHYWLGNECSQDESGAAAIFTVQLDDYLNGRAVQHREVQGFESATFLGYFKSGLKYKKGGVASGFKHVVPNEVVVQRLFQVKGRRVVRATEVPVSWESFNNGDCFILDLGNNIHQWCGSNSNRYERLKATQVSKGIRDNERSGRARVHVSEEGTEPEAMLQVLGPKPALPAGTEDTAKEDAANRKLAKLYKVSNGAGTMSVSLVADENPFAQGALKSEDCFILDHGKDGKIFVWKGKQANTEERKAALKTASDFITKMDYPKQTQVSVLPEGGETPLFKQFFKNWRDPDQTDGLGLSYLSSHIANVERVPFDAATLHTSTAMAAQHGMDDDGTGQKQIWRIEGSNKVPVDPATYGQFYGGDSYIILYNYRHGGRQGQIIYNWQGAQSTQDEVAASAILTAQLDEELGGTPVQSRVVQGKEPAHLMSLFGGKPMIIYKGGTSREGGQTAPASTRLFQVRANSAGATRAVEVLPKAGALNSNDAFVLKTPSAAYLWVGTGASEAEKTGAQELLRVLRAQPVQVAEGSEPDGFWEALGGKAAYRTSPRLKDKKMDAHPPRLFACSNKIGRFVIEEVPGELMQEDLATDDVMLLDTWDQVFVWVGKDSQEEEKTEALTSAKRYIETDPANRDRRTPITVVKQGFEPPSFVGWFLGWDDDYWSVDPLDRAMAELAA", "assay": "Actin filament severing activity of purified gelsolin (pyrene F-actin depolymerization)", "assay_type": "biochemical", "description": "To determine gelsolin's severing activity, rates of fluorescence decrease were evaluated during depolymerization. Monomeric G-actin was prepared from an acetone powder of rabbit skeletal muscle according to previously published methods (Spudich et al., J. Biol. Chem […]). The non-polymerizing solution contained 2 mM TRIS, 0.2 mM CaCl2, 0.5 mM ATP (adenosine triphosphate), 0.2 mM DTT (dithiothreitol) pH 7.4. Actin was polymerized by adding 150 mM KCl and 2 mM MgCl2 to the G-actin solutions and incubating for 1 hour at room temperature.\nFor F-actin severing assays, in general, a small volume (typically 5 μl) of the gelsolin composition is added to a similar volume of pyrene-labeled F-actin at a concentration adjusted to provide an actin:gelsolin ratio of approximately 10:1 (typically 1 μM gelsolin and 10 μM actin). This mixture is the diluted to 0.5 μM in a larger volume of F-actin buffer, and the filament severing efficiency is calculated from the initial slope of the fluorescence change. This reflects the rate of depolymerization that, in turn, is proportional to the number of cuts made by gelsolin. The LPS/gelsolin reaction can be done under any ionic condition, and the addition to F-actin requires the presence of […] Ca^2+ to activate the gelsolin. […] The actin nucleation reaction is similar except that in the latter case, the gelsolin/LPS mixture is added to a more dilute solution of G-actin (typically, 1 or 2 μM) in low ionic strength buffer followed immediately by addition of 150 mM KCI and 2 mM MgCl2 to initiate polymerization.\nAs shown, recombinant human gelsolin (rhGLS) (FIG. 4A) and blood serum (FIG. 4B) severing activity was measured in 0.4 μM pyrene-labeled F-actin samples (polymerized with 50% pyrene-labeled G-actin), after adding gelsolin (16 nM)/serum (2.5 μl), or their combination with one of the following: LPS (from different species), PIP2 (phosphatidyl-inositol-4,5-bisphosphate), LPA (lysophosphatidic acid), lipid A (the LPS derivative lacking polysaccharide) or PS (phosphatidylserine). The fluorescence intensity of F-pyrene actin was then monitored for 10 minutes, and the severing activity was calculated based on decreasing fluorescence. Severing activity was determined from a decrease in rate of fluorescence during depolymerization, and the depolymerization rate was calculated from the slope of the early decrease in fluorescence."}, "[4]": {"assay": "Neutron scattering of LPS with gelsolin peptide", "assay_type": "physicochemical", "conditions": "preliminary neutron scattering, cylindrical structure", "text": "The molecular structure of LPS and its complexes with proteins can be measured at nm resolution by X-ray and neutron scattering, as well as by electron and atomic force microscopy.\nAt present, the calculated diameter (36 nm) is greater than that which has been previously reported for pure LPS micelles, and the difference in size may reflect another structural feature. In additional experiments with more variations in gelsolin/LPS or peptide, LPS ratios will reveal if there are significant changes in LPS particle structure when these peptides bind LPS."}},
  "note": "Entries after “also recorded” stand apart in the source; their conditions may differ.",
  "data": [
    {"substance": "lipopolysaccharide [LPS]", "values": [
      {"measurement": "induction of NF-κB translocation to the nucleus", "setting": "[1]", "result": "caused NF-κB translocation to the nucleoplasm; also recorded: resulted in its translocation to the nucleoplasm"},
      {"measurement": "effect of LPS alone on collagen-induced platelet aggregation and secretion", "setting": "[2]", "result": "strongly inhibited"},
      {"measurement": "inhibition of severing activity of gelsolin", "setting": "[3]; 0.02 μM LPS (100 ng/ml), 0.016 μM gelsolin", "result": 50, "unit": "%"},
      {"measurement": "inhibition of severing capability of gelsolin", "setting": "[3]; 0.1 μM LPS, 0.016 μM gelsolin", "result": 90, "unit": "%"},
      {"measurement": "inhibition of severing activity of purified human gelsolin", "setting": "[3]; LPS concentration not stated at this place", "result": 50, "unit": "%"},
      {"measurement": "inhibitory effect on severing activity of purified gelsolin", "setting": "[3]; molar basis comparison", "result": "more potent inhibitor than either LPA or P1P2; also recorded: more potent inhibitor; also recorded: more potent inhibitor of gelsolin actin severing capability than either LPA or PIP2"},
      {"measurement": "calculated diameter", "setting": "[4]", "result": 36, "unit": "nm"}
    ]}
  ]
}
